Source: PMC7734618 (Bioorganic & medicinal chemistry, 2008)
Where a name gives a salt, the structure may show the parent alone.

What was measured:
Format in all cases: cell-based
[1] = Cytotoxicity in PHA-stimulated human PBM cells; conditions: uninfected PHA-stimulated PBM cells
[2] = in vitro; conditions: human, CEM cells (T-lymphoblastoid cell line)
[3] = tested on: HIV-1LAI; experiment: Anti-HIV activity against HIV-1LAI in human PBM cells; conditions: HIV-1LAI in PBM cells
[4] = Cytotoxicity in Vero cells; conditions: African green monkey, Vero cells (kidney)

Structure (SMILES) | IC50 at 3 days [2] | IC50 at 4 days [1] | Anti-HIV activity compared with parent drug DOT (in words) [3] | IC50 at 2 days [4]
CC(=O)OC[C@@H]1OC[C@H](n2cc(C)c(=O)[nH]c2=O)O1 [Compound 1, Dioxolane thymine-5′-O-acetic ester] | – | > 100 µM | – | –
CCCCC(=O)OC[C@@H]1OC[C@H](n2cc(C)c(=O)[nH]c2=O)O1 [Compound 2, Dioxolane thymine-5′-O-valeric ester] | > 100 µM | > 100 µM | – | –
CCCCCCCC(=O)OC[C@@H]1OC[C@H](n2cc(C)c(=O)[nH]c2=O)O1 [Compound 3, Dioxolane thymine-5′-O-octanotic ester] | > 100 µM | > 100 µM | – | –
CCCCCCCCCCCC(=O)OC[C@@H]1OC[C@H](n2cc(C)c(=O)[nH]c2=O)O1 [Compound 4, Dioxolane thymine-5′-O-dodecanoic ester] | > 100 µM | > 100 µM | – | –
CCCCCCCCCCCCCCCC(=O)OC[C@@H]1OC[C@H](n2cc(C)c(=O)[nH]c2=O)O1 [Compound 5, Dioxolane thymine-5′-O-palmitic ester] | > 100 µM | > 100 µM | – | –
Cc1cn([C@H]2CO[C@@H](COC(=O)C(C)(C)C)O2)c(=O)[nH]c1=O [Compound 6, Dioxolane thymine-5′-O-pivalic ester] | > 100 µM | > 100 µM | – | –
Cc1cn([C@H]2CO[C@@H](COC(=O)C3CC3)O2)c(=O)[nH]c1=O [Compound 7, Dioxolane thymine-5′-O-cyclopropanecarboxylic ester] | > 100 µM | > 100 µM | – | –

More lines, main results first:

IC50 at 3 days [2] | Structure (SMILES) | IC50 at 4 days [1] | Anti-HIV activity compared with parent drug DOT (in words) [3] | IC50 at 2 days [4]
> 100 µM | Cc1cn([C@H]2CO[C@@H](COC(=O)C3CCCCC3)O2)c(=O)[nH]c1=O [Compound 8, Dioxolane thymine-5′-O-cyclohexanecarboxylic ester] | > 100 µM | – | –
> 100 µM | Cc1cn([C@H]2CO[C@@H](COCOC(=O)C(C)(C)C)O2)c(=O)[nH]c1=O [Compound 9, Dioxolane thymine-5′-O-pivaloyloxymethyl ether] | > 100 µM | slightly reduced antiviral activity | –
> 100 µM | Cc1cn([C@H]2CO[C@@H](COC(=O)CN)O2)c(=O)[nH]c1=O [Compound 11, Dioxolane thymine-5′-O-glycyl ester hydrochloride] | > 100 µM | – | –
> 100 µM | Cc1cn([C@H]2CO[C@@H](COC(=O)[C@H](C)N)O2)c(=O)[nH]c1=O [Compound 13, Dioxolane thymine-5′-O-l-alanyl ester hydrochloride] | > 100 µM | – | –
> 100 µM | Cc1cn([C@H]2CO[C@@H](COC(=O)[C@@H](N)Cc3ccccc3)O2)c(=O)[nH]c1=O [Compound 14, Dioxolane thymine-5′-O-l-phenylalanyl ester hydrochloride] | > 100 µM | – | > 100 µM
> 100 µM | Cc1cn([C@H]2CO[C@@H](COC(=O)[C@H](N)Cc3ccccc3)O2)c(=O)[nH]c1=O [Compound 15, Dioxolane thymine-5′-O-d-phenylalanyl ester hydrochloride] | > 100 µM | – | > 100 µM
> 100 µM | Cc1cn([C@H]2CO[C@@H](COC(=O)[C@@H](N)C(C)C)O2)c(=O)[nH]c1=O [Compound 16, Dioxolane thymine-5′-O-l-valyl ester hydrochloride] | > 100 µM | – | > 100 µM
> 100 µM | Cc1cn([C@H]2CO[C@@H](COC(=O)[C@H](N)C(C)C)O2)c(=O)[nH]c1=O [Compound 17, Dioxolane thymine-5′-O-d-valyl ester hydrochloride] | > 100 µM | – | > 100 µM
> 100 µM | Cc1cn([C@H]2CO[C@@H](COC(=O)[C@@H](N)CC(C)C)O2)c(=O)[nH]c1=O [Compound 18, Dioxolane thymine-5′-O-l-leucinyl ester hydrochloride] | > 100 µM | – | –
